Measurements taken from US10905660B2, “Microparticles” (NovaBiotics Limited, priority 2016, dated 2021).

Assays:
Format in all cases: in vivo
[1] = system: Pseudomonas aeruginosa ATCC 27853; assay: Mouse IN neutropenic lung burden model, Lynovex/lactose study; conditions: 24 h post-infection
Method: (§1) Assessment of Efficacy of Lynovex (Cysteamine) Prep in a Mouse IN Neutropenic model of Pseudomonas aeruginosa ATCC 27853 (Lung Burden Model)
(§2) Animals were immunosuppressed/pre-conditioned with either 200 mg/kg or 150 mg/kg cyclophosphamide. Lynovex, chemical name cysteamine, and vehicle were either prepared either as Lynovex and lactose vehicle, or Lynovex and mannitol-based vehicle (both provided by Upperton (Upperton product)). These were prepared for treatment and vehicle-control alone respectively, and in combination. Tobramycin was prepared as an inhalation formulation in lactose. All treatments were administered using a Penn Century device. Phosphate buffered saline (PBS) and Pseudomonas selective agar were required for bacterial tissue burden.
(§3) Male CD1 mice (n=6 for treatment groups, plus five in pre-treatment group, totalling 35 mice) were used in this study. On day −4, the mice were immunosuppressed/pre-conditioned with 200 mg/kg cyclophosphamide intraperitoneally; and with 150 mg/kg cyclophosphamide intraperitoneally on day −1. An infection was established with P. aeruginosa ATCC27853, with an inoculum of 5×10^6 cfu/ml, administered intranasally in a volume of 40 μl following anaesthetisation with a ketamine/xylazine anaesthetic cocktail for 15 minutes, for the Lynovex prepared in lactose study, and an inoculum of 4×10^6 for the Upperton Lynovex product.
All treatments were administered intratracheally using a Penn Century device.
Lynovex (cysteamine) was administered at 1.5 mg alone, and in combination with lactose at the following concentrations: Lynovex 0.75 mg+2.25 mg lactose powder, Lynovex 1.5 mg+1.5 mg lactose powder, Lynovex 2.25 mg+0.75 mg, along with a vehicle only control of 3 mg lactose. In addition, Tobramycin at 188 μg/dose was administered, as an inhaled formulation which was mixed with lactose to aid measurement. The treatments were administered approximately 5 minutes after infection.
(§4) The lung tissue burden of each animal, at the clinical end point of 24 h post-infection, was determined. The lungs were homogenised in 2 ml PBS, serially diluted in PBS and plated onto Pseudomonas selective agar before quantification after 24-48 h at 37° C.

[2] = Mouse weights before and after infection; conditions: P. aeruginosa infected neutropenic CD1 mice, Upperton product study (FIG. 6)
Method: as §3
In a different study, Lynovex was administered at the following doses: 3 mg 5% Lynovex and 3 mg 10% Lynovex. Lynovex in combination with Tobramycin as follows: 3 mg 5% Lynovex+Tobramycin 0.188 mg in 1.5 mg vehicle, 3 mg 10% Lynovex+Tobramycin 0.188 mg in 1.5 mg Vehicle (mannitol-based, provided by Upperton) and a Tobramycin only control (0.188 mg/dose in lactose vehicle). The treatments were administered once approximately 10 minutes after infection.
Additionally, mouse weights were recorded before and after infection. Mice treated with vehicle, Lynovex monotherapy or Tobramycin monotherapy lost weight following infection. […]

[3] = system: Pseudomonas aeruginosa ATCC 27853; assay: Mouse IN neutropenic lung burden model, Lynovex Upperton product (mannitol-based) study; conditions: 0.188 mg inhalation formulation, intratracheal, 24 h post-infection; highly variable burdens
Method: as §1, §2
Male CD1 mice (n=6 for treatment groups, plus five in pre-treatment group, totalling 35 mice) were used in this study. On day −4, the mice were immunosuppressed/pre-conditioned with 200 mg/kg cyclophosphamide intraperitoneally; and with 150 mg/kg cyclophosphamide intraperitoneally on day −1. […]
as §4

| Structure (SMILES) | mice clearing the infection to below the detection limit ([1]; 1.5 mg intratracheal) | lung burden compared to vehicle ([1]; 1.5 mg intratracheal, P=0.0072) | mice clearing the infection to below the detection limit ([1]; 2.25 mg intratracheal) | lung burden compared to vehicle ([1]; 2.25 mg intratracheal, P=0.0349) | animals that cleared the infection to below the limit of detection ([1]; 0.188 mg inhalation formulation, intratracheal) | lung burden compared with vehicle-treated mice ([1]; 0.188 mg inhalation formulation, intratracheal, CD1 mice, P=0.0097 Kruskal Wallis test) | mouse weight following infection [2] | average reduction in lung burden compared with vehicle-treated mice [3] [log10 cfu/g] |
| --- | --- | --- | --- | --- | --- | --- | --- | --- |
| NCCS [Lynovex, cysteamine] | 5/6 | reduced the lung burden | 4/6 | reduced the lung burden | – | – | – | – |
| NC[C@H]1O[C@H](O[C@H]2[C@H](O)[C@@H](O[C@H]3O[C@H](CO)[C@@H](O)[C@H](N)[C@H]3O)[C@H](N)C[C@@H]2N)[C@H](N)C[C@@H]1O [Tobramycin] | – | – | – | – | 5/6 | statistically significant reduction in lung burden | lost weight | 1.61 |
